From patent US20260376299A1, “METHODS OF TREATING ACUTE MYELOID LEUKEMIA” (The Regents of the University of Colorado, A Body Corporate, priority 2022, published 2026)

Experiments:
[1] = test system: p-LSCs; assay: Colony-forming unit (CFU) assay on p-LSCs; format: cell-based, human
Experimental: (§1) FIG. 6C and FIG. 6D show the impact of chemotherapy agents AraC, DNR, DHODH inhibitor brequinar (BRQ), and TYMS inhibitor methotrexate (MTX) on the CFU potential of m-LSCs, p-LSCs and CD34+ HSPCs. […] IP, intraperitoneal; OG, oral gavage. […] Engraft % was determined by % of hCD45+/mCD45− cells within total viable bone marrow mononuclear cells. Each dot represents a unique mouse. For PDX of AML-13, control (n=11), VEN+AZA(n=9), CdA(n=10), VEN+AZA+CdA(n=10). For PDX of AML-07, control(n=11), VEN+AZA(n=9), CdA(n=12), VEN+AZA+CdA(n=9). Box plots represent median+interquartile range. Kruskal-Wallis test was used. ns, not significant. […] Engraft % was determined by % of hCD45+/mCD45− cells within total viable spleen mononuclear cells. hCD45+ count was determined by direct quantification of hCD45+/mCD45− cells within a set volume of spleen harvest using flow cytometry. Each dot represents a unique mouse. Control (n=6), VEN+AZA(n=6), CdA(n=6), VEN+AZA+CdA(n=6). Box plots represent median+/−interquartile. Kruskal-Wallis test was used. ns, not significant. […]
(§2) Freshly sorted m-LSCs from primary AMLs or prepared CD34+ HSPCs isolated from normal mobilized peripheral samples were plated in human methylcellulose (R&D systems) at about 100 K/ml and 2 K/ml, respectively. […] Colonies were counted 2-3 weeks after the initial plating.

[2] = test system: monocytic subpopulation of engrafted AML cells; assay: Flow analysis of residual engrafted human cells after in vivo treatment; design: species or system human AML in NSG-S mice
Experimental: (§3) Methotrexate (MTX), brequinar (BRQ), and cladribine (CdA) were selected based on their activities in inhibiting one-carbon metabolism enzymes DHFR and TYMS, pyrimidine synthesis enzyme DHODH, and purine-based DNA/RNA synthesis, respectively. Colony-forming unit assays were performed on m-LSCs and p-LSCs isolated from Mono, Multi-MMP, and Prim specimens, along with normal CD34+ hematopoietic stem and progenitor cells (HSPC) from two healthy donors.
NSG-S (NOD.Cg-Prkdcscid Il2rgtm1Wjl Tg(CMV-IL3,CSF2,KITLG)1Eav/MloySzJ) mice (The Jackson Laboratory) were used for xenograft studies in this study. Male or female mice ranging in age from 6 to 8 weeks were started on experiment. Littermates of the same sex were randomly assigned to experimental groups. NSG-S mice were pre-conditioned 24 hours prior to transplant with 30 mg/kg busulfan (Alfa Acsar) via intraperitoneal (IP) injection. The busulfan stock was made fresh at 25 mg/ml in 100% DMSO, then the stock was diluted 1:10 in pre-warmed saline (0.9% NaCl) down to 2.5 mg/ml right before use. The diluted busulfan solution was kept in 37 °C water bath before IP injection to prevent precipitation of busulfan due to low solubility. […]
About 2-4 weeks post initial transplant, tumor burden in the bone marrow was determined to be above 5% in sentinel mice. […]

[3] = test system: m-LSCs; assay: Colony-forming unit (CFU) assay on m-LSCs; format: cell-based, human; conditions: for potency against m-LSCs, CdA versus BRQ and MTX / selectivity for m-LSCs over p-LSCs and normal HSPCs: CFU assay; for potency against m-LSCs, CdA versus BRQ and MTX: FIG. 6D; for selectivity for m-LSCs over p-LSCs and normal HSPCs: FIG. 6C
Experimental: FIG. 6C and FIG. 6D show the impact of chemotherapy agents AraC, DNR, DHODH inhibitor brequinar (BRQ), and TYMS inhibitor methotrexate (MTX) on the CFU potential of m-LSCs, p-LSCs and CD34+ HSPCs. […] IP, intraperitoneal; OG, oral gavage. […] Engraft % was determined by % of hCD45+/mCD45− cells within total viable bone marrow mononuclear cells. Each dot represents a unique mouse. For PDX of AML-13, control (n=11), VEN+AZA(n=9), CdA(n=10), VEN+AZA+CdA(n=10). For PDX of AML-07, control(n=11), VEN+AZA(n=9), CdA(n=12), VEN+AZA+CdA(n=9). Box plots represent median+interquartile range. Kruskal-Wallis test was used. ns, not significant. […] Engraft % was determined by % of hCD45+/mCD45− cells within total viable spleen mononuclear cells. hCD45+ count was determined by direct quantification of hCD45+/mCD45− cells within a set volume of spleen harvest using flow cytometry. Each dot represents a unique mouse. Control (n=6), VEN+AZA(n=6), CdA(n=6), VEN+AZA+CdA(n=6). Box plots represent median+/−interquartile. Kruskal-Wallis test was used. ns, not significant.
as §3
Freshly sorted m-LSCs from primary AMLs or prepared CD34+ HSPCs isolated from normal mobilized peripheral samples were plated in human methylcellulose (R&D systems) at about 100 K/ml and 2 K/ml, respectively. Small molecule inhibitors were directly added into the methylcellulose at the desired final concentration at the plating. Colonies were counted 2-3 weeks after the initial plating.

[4] = test system: normal CD34+ HSPCs; assay: Colony-forming unit (CFU) assay on normal CD34+ HSPCs; format: cell-based, human; conditions: normal CD34+ HSPCs from two healthy donors
Experimental: as §1, §2

[5] = test system: AML patients; conditions: cited from earlier work

Compound: Nc1nc(Cl)nc2c1ncn2[C@H]1C[C@@H](O)[C@@H](CO)O1 (stereo in doubt) [CdA, 5-(6-Amino-2-chloro-purin-9-yl)-2-(hydroxymethyl)oxolan-3-ol]
- effect on CFU potential (sparing) [1]: sparing p-LSCs
- clearance of the monocytic subpopulation [2]: targeted the monocytic counterpart
- potency against m-LSCs, CdA versus BRQ and MTX [3]: outperformed BRQ and MTX in potency against m-LSCs
- effect on CFU potential / specificity against m-LSCs ([3]; m-LSCs isolated from AML specimens): remarkable specificity against m-LSCs
- effect on CFU potential (sparing) [4]: sparing p-LSCs as well as normal HSPC controls

Compound: Cc1c(-c2ccc(-c3ccccc3F)cc2)nc2ccc(F)cc2c1C(=O)O [BRQ, 6-fluoro-2-(2′-fluoro-1,1′-biphenyl-4-yl)-3-methyl-4-quinolinecarboxylic acid]
- potency against m-LSCs, CdA versus BRQ and MTX [3]: CdA also outperformed BRQ and MTX in potency against m-LSCs

Compound: CN(Cc1cnc2nc(N)nc(N)c2n1)c1ccc(C(=O)N[C@@H](CCC(=O)O)C(=O)O)cc1 [MTX, (28)-2-[(4-{[(2,4-Diaminopteridin-6-yl)methyl](methyl)amino}benzoyl)amino]pentanedioic acid]
- potency against m-LSCs, CdA versus BRQ and MTX [3]: CdA also outperformed BRQ and MTX in potency against m-LSCs

Compound: Nc1ccn([C@@H]2O[C@H](CO)[C@@H](O)[C@@H]2O)c(=O)n1 [cytarabine, 4-amino-1-[(2R,3S,4S,5R)-3,4-dihydroxy-5-(hydroxymethyl)oxolan-2-yl]pyrimidin-2-one]
- selectivity for m-LSCs over p-LSCs and normal HSPCs [3]: selectivity was not seen

Compound: COc1cccc2c1C(=O)c1c(O)c3c(c(O)c1C2=O)C[C@@](O)(C(C)=O)C[C@@H]3O[C@H]1C[C@H](N)[C@H](O)[C@H](C)O1 [daunorubicin]
- selectivity for m-LSCs over p-LSCs and normal HSPCs [3]: selectivity was not seen

Compound: CC1(C)CCC(CN2CCN(c3ccc(C(=O)NS(=O)(=O)c4ccc(NCC5CCOCC5)c([N+](=O)[O-])c4)c(Oc4cnc5[nH]ccc5c4)c3)CC2)=C(c2ccc(Cl)cc2)C1 [venetoclax, 4-(4-{[2-(4-Chlorophenyl)-4,4-dimethyl-1-cyclohexen-1-yl]methyl}-1-piperazinyl)-N-({3-nitro-4-[(tetrahydro-2H-pyran-4-ylmethyl)amino]phenyl}sulfonyl)-2-(1H-pyrrolo[2,3-b]pyridin-5-yloxy)benzamide]
- responses to venetoclax in combination with backbone chemotherapy ([5]; older previously untreated AML patients): 60-70%
- CR/CRi and MRD negativity rates ([5]; venetoclax combined with chemotherapy regimens FLAG-Ida, CLIA or Clad-LDAC/AZA, recent clinical trials): superior CR/CRi and MRD negativity rates
